# Where “and” joins values, the source holds several entries; their conditions need not be identical. Identical values can stand only once. Like-named read-outs stand apart in the source and are kept apart here.
# Tests used:
# [1] = test system: A. baumannii ATCC 19606; experiment: Antibacterial MIC, double-dilution method; type: cell-based; settings: Acinetobacter baumannii, ATCC19606
# Experimental: (§1) MIC values were determined against a variety of Gram-positive (strains A-D) and Gram-negative (E-J) bacterial and mycobacterial (K) strains using the double-dilution method, as previously published. Preliminary screening was performed using 500 μM of each compound.
# [2] = test system: B. subtilis 168; experiment: Antibacterial MIC, double-dilution method; type: cell-based; settings: Bacillus subtilis, strain A, Gram-positive
# Experimental: as §1
# [3] = test system: E. cloacae ATCC 13047; experiment: Antibacterial MIC, double-dilution method; type: cell-based; settings: Enterobacter cloacae, ATCC13047
# Experimental: as §1
# [4] = test system: E. coli MC1061; experiment: Antibacterial MIC, double-dilution method; type: cell-based; settings: Escherichia coli, strain G, Gram-negative, read-out: MIC
# Experimental: as §1
# [5] = test system: K. pneumoniae ATCC 27736; experiment: Antibacterial MIC, double-dilution method; type: cell-based; settings: Klebsiella pneumoniae, ATCC27736
# Experimental: as §1
# [6] = test system: L. monocytogenes ATCC 19115; experiment: Antibacterial MIC, double-dilution method; type: cell-based; settings: Listeria monocytogenes, ATCC19115, strain B, Gram-positive, read-out: MIC
# Experimental: as §1
# [7] = test system: M. smegmatis MC2-155; experiment: Antibacterial MIC, double-dilution method; type: cell-based; settings: Mycolicibacterium smegmatis, MC2155, strain K, mycobacterial
# Experimental: as §1
# [8] = test system: MRSA; experiment: Antibacterial MIC, double-dilution method; type: cell-based; settings: Staphylococcus aureus, strain C, Gram-positive, read-out: MIC
# Experimental: as §1
# [9] = test system: P. aeruginosa ATCC 27853; experiment: Antibacterial MIC, double-dilution method; type: cell-based; settings: Pseudomonas aeruginosa, ATCC27853
# Experimental: as §1
# [10] = test system: S. enterica ATCC 14028; experiment: Antibacterial MIC, double-dilution method; type: cell-based; settings: Salmonella enterica, ATCC14028, strain J, Gram-negative, read-out: MIC
# Experimental: as §1
# [11] = test system: VRE; experiment: Antibacterial MIC, double-dilution method; type: cell-based; settings: Enterococcus, strain D, Gram-positive, read-out: MIC
# Experimental: as §1
# [12] = test system: C. albicans ATCC 1003; experiment: Antifungal MIC, CLSI M27-A3 microbroth dilution; type: cell-based, Candida albicans; settings: Candida albicans, ATCC1003, read-out: MIC
# Experimental: (§2) In vitro MIC testing was performed according to the CLSI M27-A3 standard microbroth dilution methodology for the susceptibility testing of yeasts with minor modifications.
# [13] = test system: C. albicans ATCC 10231; experiment: Antifungal MIC, CLSI M27-A3 microbroth dilution; type: cell-based, Candida albicans; settings: Candida albicans, ATCC10231, C. albicans ATCC 10231, resistant to FLC, ITC, and VOR, read-out: MIC
# Experimental: as §2
# [14] = test system: C. albicans ATCC 1237; experiment: Antifungal MIC, CLSI M27-A3 microbroth dilution; type: cell-based, Candida albicans; settings: Candida albicans, ATCC1237, C. albicans ATCC 1237, resistant to FLC, ITC, and VOR, read-out: MIC
# Experimental: as §2
# [15] = test system: C. albicans ATCC 2310; experiment: Antifungal MIC, CLSI M27-A3 microbroth dilution; type: cell-based, Candida albicans; settings: Candida albicans, ATCC2310, C. albicans ATCC 2310, susceptible to FLC, ITC, and VOR, read-out: MIC
# Experimental: as §2
# [16] = test system: C. albicans ATCC 2876; experiment: Antifungal MIC, CLSI M27-A3 microbroth dilution; type: cell-based, Candida albicans; settings: Candida albicans, ATCC2876, C. albicans ATCC 2876, susceptible to FLC, ITC, and VOR, read-out: MIC
# Experimental: as §2
# [17] = test system: C. albicans ATCC 64124; experiment: Antifungal MIC, CLSI M27-A3 microbroth dilution; type: cell-based, Candida albicans; settings: Candida albicans, ATCC64124, C. albicans ATCC 64124, resistant to FLC, ITC, and VOR, read-out: MIC
# Experimental: as §2
# [18] = test system: C. albicans ATCC 90819; experiment: Antifungal MIC, CLSI M27-A3 microbroth dilution; type: cell-based, Candida albicans; settings: Candida albicans, ATCC90819, C. albicans ATCC 90819, resistant to FLC, ITC, and VOR, read-out: MIC
# Experimental: as §2
# [19] = test system: C. albicans strains (panel of seven); experiment: Antifungal MIC, summary over the panel; type: cell-based, Candida albicans; settings: for MIC: Candida albicans, all, most or majority of the fungal strains, read-out: MIC, span over C. albicans strains
# Experimental: In vitro MIC testing was performed according to the CLSI M27-A3 standard microbroth dilution methodology for the susceptibility testing of yeasts with minor modifications. […] MIC values were read visually for all tested compounds, and the endpoint was determined as the minimum concentration of compound that yielded complete inhibition relative to growth control.
# [20] = test system: all bacterial strains tested; experiment: Antibacterial MIC, summary over the panel; type: cell-based; settings: read-out: MIC, span over all bacterial strains tested
# Experimental: as §1
# [21] = strain E, Gram-negative, converted from μM, read-out: MIC
# [22] = strain E, Gram-negative, range 0.5 to 500 μM, read-out: MIC
# [23] = strain F, Gram-negative, converted from μM, read-out: MIC
# [24] = strain F, Gram-negative, range 0.5 to 500 μM, read-out: MIC
# [25] = strain H, Gram-negative, converted from μM, read-out: MIC
# [26] = strain H, Gram-negative, range 0.5 to 500 μM, read-out: MIC
# [27] = converted from μM, read-out: MIC
# [28] = range 0.5 to 500 μM, read-out: MIC
# [29] = strain I, Gram-negative, converted from μM, read-out: MIC
# [30] = strain I, Gram-negative, range 0.5 to 500 μM, read-out: MIC
# [31] = C. albicans ATCC 1003, converted from μg/mL
SMILES,"MIC [1, 22] [µM]",MIC ([2]; converted from μM) [µg/mL],MIC ([2]; range 0.5 to 500 μM) [µM],"MIC [3, 23] [µg/mL]","MIC [3, 24] [µM]",MIC ([4]; converted from μM) [µg/mL],MIC ([4]; range 0.5 to 500 μM) [µM],"MIC [5, 26] [µM]",MIC ([6]; converted from μM) [µg/mL],MIC ([6]; range 0.5 to 500 μM) [µM],"MIC [7, 27] [µg/mL]","MIC [7, 28] [µM]",MIC ([8]; converted from μM) [µg/mL],MIC ([8]; range 0.5 to 500 μM) [µM],"MIC [9, 29] [µg/mL]","MIC [9, 30] [µM]",MIC ([10]; converted from μM) [µg/mL],MIC ([10]; range 0.5 to 500 μM) [µM],MIC ([11]; converted from μM) [µg/mL],MIC ([11]; range 0.5 to 500 μM) [µM],also measured
"Cl.N=C(N)N/N=C/c1ccc(-c2ccc(/C=N/Nc3ccc(Cl)cc3Cl)cc2)cc1 [Compound 7Ag, (E)-2-((4′-((E)-(2-(2,4-dichlorophenyl)hydrazono)methyl)-[1,1′-biphenyl]-4-yl)methylene)hydrazine-1-carboximidamide hydrochloride]",> 500,> 231,> 500,> 231,> 500,> 231,> 500,> 500,3.6,7.8,1.8,3.9,3.6,7.8,> 231,> 500,> 231,> 500,3.6,7.8,"MIC [1, 21]: > 231 µg/mL; MIC [5, 25]: > 231 µg/mL; MIC [12, 31]: 16.8 µM; MIC [12]: 7.8 µg/mL; MIC ([13]; converted from μg/mL): 16.8 µM; MIC [13]: 7.8 µg/mL; MIC ([14]; converted from μg/mL): 33.8 µM; MIC [14]: 15.6 µg/mL; MIC ([15]; converted from μg/mL): 16.8 µM; MIC [15]: 7.8 µg/mL; MIC ([16]; converted from μg/mL): 33.8 µM; MIC [16]: 15.6 µg/mL; MIC ([17]; converted from μg/mL): 67.8 µM; MIC [17]: 31.3 µg/mL; MIC ([18]; converted from μg/mL): 67.8 µM; MIC [18]: 31.3 µg/mL; MIC [19]: 7.8 to 15.6 µg/mL; melting point: 356 to 358 °C"
"Cl.N#Cc1ccc(N/N=C/c2ccc(-c3ccc(/C=N/NC(=N)N)cc3)cc2)cc1 [Compound 7Ae, (E)-2-((4′-((E and Z)-(2-(4-Cyanophenyl)hydrazono)methyl)-[1,1′-biphenyl]-4-yl)methylene)hydrazine-1-carboximidamide monohydrochloride]",–,13.1,31.3,209,500,26.1 to 52.2,62.5 to 125,–,3.3,7.8,6.5 to 13.1,–,6.5,15.6,13.1 to 26.1,31.3 to 62.5,6.5,15.6,0.8 to 1.6,2 to 3.9,"MIC [1]: 15.6 µM to 31.3 µM and 6.5 µg/mL to 13.1 µg/mL; MIC [5]: 15.6 µM to 31.3 µM and 6.5 µg/mL to 13.1 µg/mL; MIC ([7]; range 0.5 to 500 μM): 15.6 to 31.3 µM; MIC [12, 31]: 18.7 µM; MIC [12]: 7.8 µg/mL; MIC ([13]; converted from μg/mL): 37.3 µM; MIC [13]: 15.6 µg/mL; MIC ([14]; converted from μg/mL): 37.3 µM; MIC [14]: 15.6 µg/mL; MIC ([15]; converted from μg/mL): 37.3 µM; MIC [15]: 15.6 µg/mL; MIC ([16]; converted from μg/mL): 37.3 µM; MIC [16]: 15.6 µg/mL; MIC ([17]; converted from μg/mL): 74.9 µM; MIC [17]: 31.3 µg/mL; MIC ([18]; converted from μg/mL): 37.3 µM; MIC [18]: 15.6 µg/mL; MIC [19]: 7.8 to 15.6 µg/mL; melting point: 308 to 310 °C"
"Cl.N=C(N)N/N=C/c1ccc(-c2ccc(/C=N/Nc3ccccc3Br)cc2)cc1 [Compound 7Ab, (E)-2-((4′-((E and Z)-(2-(2-Bromophenyl)hydrazono)methyl)-[1,1′-biphenyl]-4-yl)methylene)hydrazine-1-carboximidamide monohydrochloride]",> 500,> 235,> 500,> 235,> 500,> 235,> 500,> 500,0.9,2,1.8,3.9,0.9,2,> 235,> 500,> 235,> 500,0.9,2,"MIC [1, 21]: > 235 µg/mL; MIC [5, 25]: > 235 µg/mL; MIC [12, 31]: 4.1 µM; MIC [12]: 2 µg/mL; MIC ([13]; converted from μg/mL): 4.1 µM; MIC [13]: 2 µg/mL; MIC ([14]; converted from μg/mL): 8.3 µM; MIC [14]: 3.9 µg/mL; MIC ([15]; converted from μg/mL): 8.3 µM; MIC [15]: 3.9 µg/mL; MIC ([16]; converted from μg/mL): 8.3 µM; MIC [16]: 3.9 µg/mL; MIC ([17]; converted from μg/mL): 8.3 µM; MIC [17]: 3.9 µg/mL; MIC ([18]; converted from μg/mL): 8.3 µM; MIC [18]: 3.9 µg/mL; antifungal activity in words ([19]; against all fungal strains tested): excellent antifungal activities; melting point: > 380 °C"
"CC1COc2c(N3CCN(C)CC3)c(F)cc3c(=O)c(C(=O)O)cn1c23 (centres unmarked) [OFX, ofloxacin, reference compound]",≤ 0.5,≤ 0.2,≤ 0.5,≤ 0.2,≤ 0.5,1.4 to 2.8,3.9 to 7.8,15.6 to 31.3,0.4,1,5.6,15.6,0.4,1,1.4,3.9,5.6 to 11.3,15.6 to 31.3,2.8,7.8,"MIC [1, 21]: ≤ 0.2 µg/mL; MIC [5, 25]: 5.6 to 11.3 µg/mL; MIC [20]: 0.5 to 31.3 µM"
"CC1(C)S[C@@H]2[C@H](NC(=O)[C@H](N)c3ccccc3)C(=O)N2[C@H]1C(=O)O [AMP, ampicillin, reference compound]",> 250,> 92.8,> 250,–,> 250,> 92.8,> 250,> 250,92.8,250,> 92.8,> 250,92.8,250,–,> 250,92.8,250,92.8,250,MIC [1]: > 92.8 µg/mL; MIC [3]: > 92.8 µg/mL; MIC [5]: > 92.8 µg/mL; MIC [9]: > 92.8 µg/mL; MIC [20]: ≥ 250 µM

# From patent publication US10173968B2, “Bishydrazone-based antifungal agents” (University of Kentucky Research Foundation, priority 2016, dated 2019)
